Measured values reported in DBAASP.
Values after ≈ are worked out from the molar mass of the structure shown. One block for each compound: values may come before it.

Assays:
Experiment in all cases: ≥ marks a high value that may be exact or a test limit, other limits are often not marked, values filed in µg/mL are converted to µM
[1] = tested on: Staphylococcus aureus USA 300
[2] = tested on: Escherichia coli DH5alpha
[3] = tested on: Bacillus subtilis 168
[4] = tested on: Pseudomonas aeruginosa PAO1
[5] = tested on: Mycobacterium tuberculosis H37Ra
[6] = tested on: Acinetobacter baumannii ATCC 19606
[7] = tested on: Bacillus anthracis Sterne 34F2
[8] = tested on: Haemophilus influenzae ATCC 49247
[9] = tested on: Staphylococcus aureus NRS 72
[10] = tested on: Klebsiella pneumoniae NCTC 9633
[11] = tested on: Escherichia coli KACC 1039
[12] = tested on: Candida albicans KACC 30071
[13] = tested on: Enterococcus faecalis KACC 11304
[14] = tested on: Bacillus subtilis KACC 10196
[15] = tested on: Staphylococcus aureus KACC 10196
[16] = tested on: Pseudomonas aeruginosa KACC 10259
[17] = tested on: Klebsiella pneumoniae KCTC 2242
[18] = tested on: Escherichia coli AB94012
[19] = tested on: Pseudomonas aeruginosa ATCC 9027
[20] = tested on: Pseudomonas aeruginosa ATCC 27853
[21] = tested on: Staphylococcus aureus AB6538
[22] = tested on: Escherichia coli ATCC 25922
[23] = tested on: Escherichia coli ESBL 521/17
[24] = tested on: Acinetobacter baumannii 7226/16
[25] = tested on: Escherichia coli ML-35p
[26] = tested on: Pseudomonas aeruginosa 522/17
[27] = tested on: Staphylococcus aureus ATCC 33591
[28] = tested on: Klebsiella pneumoniae ESBL 344/17
[29] = tested on: Staphylococcus aureus SG511
[30] = tested on: Staphylococcus aureus 1399/17
[31] = tested on: Streptococcus agalactiae
[32] = tested on: Lacticaseibacillus rhamnosus 7469
[33] = tested on: Streptococcus agalactiae CICC 10465
[34] = tested on: Staphylococcus epidermidis ATCC 12228
[35] = tested on: Salmonella enterica subsp. enterica serovar Typhimurium ATCC 14028
[36] = tested on: Staphylococcus aureus ATCC 25923
[37] = tested on: Staphylococcus aureus ATCC 29213
[38] = tested on: Salmonella enterica subsp. enterica serovar Pullorum ATCC 7913
[39] = tested on: Streptococcus thermophilus YM-C
[40] = tested on: Escherichia coli UB1005
[41] = tested on: Salmonella enterica subsp. enterica serovar Typhimurium C77-31
[42] = tested on: Escherichia coli 078

SMILES: CC(C)[C@H](NC(=O)[C@H](Cc1c[nH]c2ccccc12)NC(=O)[C@H](Cc1cnc[nH]1)NC(=O)[C@H](CCCN=C(N)N)NC(=O)[C@H](CCCN=C(N)N)NC(=O)[C@H](Cc1c[nH]c2ccccc12)NC(=O)[C@H](Cc1c[nH]c2ccccc12)NC(=O)[C@H](Cc1cnc[nH]1)NC(=O)[C@H](Cc1c[nH]c2ccccc12)NC(=O)[C@H](CCCN=C(N)N)NC(=O)[C@@H](N)CCCCN)C(=O)N[C@H](C(=O)N[C@@H](Cc1c[nH]c2ccccc12)C(N)=O)C(C)C [KRWHWWRRHWVVW]
MIC [1]: ≥ 80 µM
MIC [2]: 25 µM (≈ 50.4 µg/mL)
MIC [3]: 0.2 µM (≈ 0.403 µg/mL)
MIC [4]: 50 µM (≈ 101 µg/mL)
MIC [5]: 2.5 µM (≈ 5.04 µg/mL)
MIC [6]: 50 µM (≈ 101 µg/mL)
MIC [7]: ≥ 80 µM
MIC [8]: ≥ 80 µM
MIC [9]: ≥ 80 µM
MIC [10]: ≥ 80 µM

SMILES: CC[C@H](C)[C@H](NC(=O)[C@H](CCCCN)NC(=O)[C@@H]1CCCN1C(=O)[C@H](CC(C)C)NC(=O)[C@@H](NC(=O)[C@H](CCCCN)NC(=O)[C@H](CCCCN)NC(=O)[C@H](CC(C)C)NC(=O)[C@@H](NC(=O)[C@H](CCCCN)NC(=O)[C@H](CCCCN)NC(=O)[C@H](CC(C)C)NC(=O)[C@H](CC(C)C)NC(=O)[C@H](CCCCN)NC(=O)[C@H](CC(C)C)NC(=O)[C@@H](N)Cc1ccccc1)C(C)C)C(C)C)C(=O)N[C@@H](Cc1ccccc1)C(=O)N[C@@H](CCCCN)C(N)=O [FLKLLKKVLKKVLPKIFK]
MIC [18]: 2.86 µM (≈ 6.25 µg/mL)
MIC [19]: 5.72 µM (≈ 12.5 µg/mL)
MIC [20]: 5.72 µM (≈ 12.5 µg/mL)
MIC [21]: 2.86 µM (≈ 6.25 µg/mL)
MIC [22]: 2.86 µM (≈ 6.25 µg/mL)

SMILES: CC[C@H](C)[C@H](NC(=O)CNC(=O)[C@@H](NC(=O)[C@@H](N)CC(C)C)[C@@H](C)CC)C(=O)N[C@H](C(=O)N[C@@H](CC(=O)O)C(=O)NCC(=O)N[C@H](C(=O)N[C@@H](CCCCN)C(=O)N[C@@H](CCC(=O)O)C(=O)N[C@@H](CCCN=C(N)N)C(=O)N[C@@H](CCCCN)C(=O)N[C@@H](CCCCN)C(=O)N[C@@H](CCCN=C(N)N)C(=O)N[C@@H](CCCN=C(N)N)C(=O)N[C@@H](CCCN=C(N)N)C(N)=O)C(C)C)[C@@H](C)CC [LIGIIDGVKERKKRRR]
MIC [31]: ≥ 64 µM
MIC [32]: ≥ 64 µM
MIC [33]: ≥ 64 µM
MIC [34]: > 64 µM
MIC [35]: > 64 µM
MIC [36]: > 64 µM
MIC [37]: > 64 µM
MIC [38]: ≥ 64 µM
MIC [39]: ≥ 64 µM
MIC [20]: > 64 µM
MIC [40]: ≥ 64 µM
MIC [41]: ≥ 64 µM
MIC [42]: ≥ 64 µM
MIC [22]: > 64 µM

Further lines, results first:

MIC [11]: 1 µM (≈ 1.94 µg/mL)
MIC [12]: 4 µM (≈ 7.76 µg/mL)
MIC [13]: 4 µM (≈ 7.76 µg/mL)
MIC [14]: 1 µM (≈ 1.94 µg/mL)
MIC [15]: 4 µM (≈ 7.76 µg/mL)
MIC [16]: 1 µM (≈ 1.94 µg/mL)
MIC [17]: 1 µM (≈ 1.94 µg/mL)
SMILES: CC[C@H](C)[C@H](NC(=O)[C@H](CO)NC(=O)[C@@H](NC(=O)[C@H](CCCCN)NC(=O)[C@H](Cc1ccccc1)NC(=O)[C@@H]1CCCN1C(=O)[C@H](CCCCN)NC(=O)[C@H](CCCCN)NC(=O)[C@H](Cc1ccccc1)NC(=O)[C@@H](NC(=O)[C@H](CCCCN)NC(=O)[C@H](Cc1c[nH]c2ccccc12)NC(=O)[C@@H](N)CCCN=C(N)N)[C@@H](C)CC)[C@@H](C)CC)C(=O)N[C@@H](Cc1cnc[nH]1)C(=O)N[C@@H](CC(C)C)C(N)=O [RWKIFKKPFKISIHL]

MIC [23]: 2 µM (≈ 6.48 µg/mL)
MIC [24]: 8 µM (≈ 25.9 µg/mL)
MIC [25]: 4 µM (≈ 13 µg/mL)
MIC [26]: 11.3 µM (≈ 36.6 µg/mL)
MIC [27]: 16 µM (≈ 51.8 µg/mL)
MIC [28]: 2 µM (≈ 6.48 µg/mL)
MIC [29]: 0.5 µM (≈ 1.62 µg/mL)
MIC [30]: 4 µM (≈ 13 µg/mL)
SMILES: CC[C@H](C)[C@H](NC(=O)[C@@H]1CCCN1C(=O)[C@@H]1CCCN1C(=O)[C@H](CCCN=C(N)N)NC(=O)[C@H](CCCN=C(N)N)NC(=O)[C@H](Cc1ccccc1)NC(=O)[C@@H]1CCCN1C(=O)[C@H](CC(C)C)NC(=O)[C@H](CCCN=C(N)N)NC(=O)[C@H](Cc1ccccc1)NC(=O)[C@@H](N)CCCN=C(N)N)C(=O)N[C@@H](CCCN=C(N)N)C(=O)N[C@H](C(=O)N1CCC[C@H]1C(=O)N1CCC[C@H]1C(=O)N1CCC[C@H]1C(=O)N[C@@H](Cc1ccccc1)C(=O)N[C@@H](Cc1ccc(O)cc1)C(=O)N1CCC[C@H]1C(=O)N1CCC[C@H]1C(=O)N[C@@H](Cc1ccccc1)C(=O)N[C@@H](CCCN=C(N)N)C(=O)N[C@@H](CCCN=C(N)N)C(=O)N[C@@H](Cc1ccccc1)C(=O)N[C@@H](CC(C)C)C(N)=O)[C@@H](C)CC [RFRLPFRRPPIRIPPPFYPPFRRFL]
